Measured values taken from patent US10280159B2 (AbbVie Deutschland GmbH & Co. KG, priority 2015, dated 2019).

Legend:
Type in all cases: cell-based
human S1PR1 = target: T1, human S1PR1 (Homo sapiens, UniProt P21453); assay: Intracellular Ca2+ release (FLIPR) agonist potency, S1P1; details: recombinant CHO-K1 cells expressing human S1PR1, aequorin, Gq/i5; Calcium 5 FLIPR; read-out: S1P1 EC50
T1 construct: host or cells: CHO-K1
In short: (§1)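 Agonist potency was determined from intracellular Ca2+ release in engineered CHO-K1 cells (human receptor, aequorin, Gq/i5) using FLIPR Tetra, with phospho-fingolimod as reference agonist for normalization.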

human S1PR4 = target: T2, human S1PR4 (Homo sapiens, UniProt O95977); assay: Intracellular Ca2+ release (FLIPR) agonist potency, S1P4; details: recombinant CHO-K1 cells expressing human S1PR4, aequorin, Gq/i5; Calcium 5 FLIPR; read-out: S1P4 EC50
T2 construct: host or cells: CHO-K1
T2 sequence (O95977 1-384): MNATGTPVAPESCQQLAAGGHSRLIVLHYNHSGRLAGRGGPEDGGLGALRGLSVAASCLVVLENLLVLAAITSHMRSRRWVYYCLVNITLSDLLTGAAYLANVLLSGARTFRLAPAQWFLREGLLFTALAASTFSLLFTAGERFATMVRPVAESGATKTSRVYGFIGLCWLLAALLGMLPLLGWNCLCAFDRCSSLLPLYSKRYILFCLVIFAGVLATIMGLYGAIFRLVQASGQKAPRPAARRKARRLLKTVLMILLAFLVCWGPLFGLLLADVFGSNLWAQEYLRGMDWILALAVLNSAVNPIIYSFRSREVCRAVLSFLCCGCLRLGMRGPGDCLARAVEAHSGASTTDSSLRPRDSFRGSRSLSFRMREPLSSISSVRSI
In short: as §1

human S1PR5 = target: T3, human S1PR5 (Homo sapiens, UniProt Q9H228); assay: Intracellular Ca2+ release (FLIPR) agonist potency, S1P5; details: recombinant CHO-K1 cells expressing human S1PR5, aequorin, Gq/i5; Calcium 5 FLIPR; read-out: S1P5 EC50 range
T3 construct: host or cells: CHO-K1
T3 sequence (Q9H228 whole entry): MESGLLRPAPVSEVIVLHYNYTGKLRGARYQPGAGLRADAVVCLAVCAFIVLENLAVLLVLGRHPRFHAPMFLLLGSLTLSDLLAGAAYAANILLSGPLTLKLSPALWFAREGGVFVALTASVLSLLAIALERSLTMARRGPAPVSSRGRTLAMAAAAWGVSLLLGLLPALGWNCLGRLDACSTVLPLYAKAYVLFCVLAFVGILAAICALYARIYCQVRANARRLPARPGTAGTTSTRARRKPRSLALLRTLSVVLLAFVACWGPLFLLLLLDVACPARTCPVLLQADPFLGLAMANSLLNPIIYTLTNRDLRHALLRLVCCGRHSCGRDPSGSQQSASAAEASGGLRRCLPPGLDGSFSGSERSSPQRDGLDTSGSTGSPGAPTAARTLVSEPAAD
In short: as §1

human S1PR3 = target: T4, human S1PR3 (Homo sapiens, UniProt Q99500); assay: Intracellular Ca2+ release (FLIPR) agonist potency, S1P3; details: recombinant CHO-K1 cells expressing human S1PR3, aequorin, Gq/i5; Calcium 5 FLIPR; read-out: S1P3 EC50
T4 construct: host or cells: CHO-K1
T4 sequence (Q99500 whole entry): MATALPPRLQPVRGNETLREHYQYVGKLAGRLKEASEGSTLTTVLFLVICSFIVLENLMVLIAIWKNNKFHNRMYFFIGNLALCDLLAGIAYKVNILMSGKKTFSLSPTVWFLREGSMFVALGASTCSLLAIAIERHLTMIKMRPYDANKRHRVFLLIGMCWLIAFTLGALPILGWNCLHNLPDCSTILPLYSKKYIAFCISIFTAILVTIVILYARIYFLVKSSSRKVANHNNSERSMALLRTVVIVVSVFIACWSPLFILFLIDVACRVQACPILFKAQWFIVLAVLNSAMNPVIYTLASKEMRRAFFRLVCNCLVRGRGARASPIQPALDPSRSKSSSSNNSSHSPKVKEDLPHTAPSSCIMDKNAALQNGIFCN
Procedure: Agonistic activity was measured using the method described below.
Intracellular Ca^2+ Release
Agonist potency and intrinsic activity was assessed by measurement of intracellular Ca^2+ release. Recombinant CHO-K1 cells (Euroscreen, Brussels, Belgium) expressing human S1PR5, S1PR1, S1PR3 or S1PR4 receptors, aequorin, and GTP binding protein Gq/i5 were cultured using a medium containing nutrient mixture F-12 Ham (Sigma-Aldrich) with 10% FBS, and 100 μg/mL gentamicin and equilibrated at 5% CO2.
Phospho-fingolimod was used as positive control. Antagonists were pre-incubated for 10 min with cells before addition of the agonist (phospho-fingolimod at EC80). Measurements were performed using a fluorometric imaging plate reader FLIPR®tetra (Molecular Devices). Agonist at the human S1P receptors were characterized by deducing EC50 (potency) values from a nonlinear fit to the measured fluorescence raw data after normalization to the reference agonist (phospho-fingolimod) curve.

T1 sequence (P21453 whole entry): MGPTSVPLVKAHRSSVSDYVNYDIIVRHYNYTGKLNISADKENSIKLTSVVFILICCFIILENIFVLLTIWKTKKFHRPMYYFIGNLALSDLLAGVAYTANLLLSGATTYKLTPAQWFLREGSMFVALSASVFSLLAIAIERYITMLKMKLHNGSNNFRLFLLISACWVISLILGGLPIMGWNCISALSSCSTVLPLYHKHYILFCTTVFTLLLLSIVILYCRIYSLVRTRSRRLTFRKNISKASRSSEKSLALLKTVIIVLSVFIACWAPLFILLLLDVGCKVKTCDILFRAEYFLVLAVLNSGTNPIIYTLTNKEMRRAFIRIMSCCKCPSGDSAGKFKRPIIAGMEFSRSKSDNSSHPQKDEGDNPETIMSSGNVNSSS

SMILES | EC50 (human S1PR1) | EC50 (human S1PR4) | EC50 (human S1PR5) | EC50 (human S1PR3)
O=C(O)C1CN(C2COc3cc(OCc4c(Cl)cccc4C4CC4)ccc3C2)C1 (centres unmarked) [Compound 25, 1-(7-((2-chloro-6-cyclopropylbenzyl)oxy)chroman-3-yl)azetidine-3-carboxylic acid] | > 1000 nM | < 1000 nM | < 10 nM | > 1000 nM
O=C(O)C1CN(C2COc3cc(C#Cc4cc(F)cc(F)c4)ccc3C2)C1 (centres unmarked) [Compound 27, 1-(7-((3,5-difluorophenyl)ethynyl)chroman-3-yl)azetidine-3-carboxylic acid] | > 1000 nM | < 1000 nM | < 10 nM | > 1000 nM
O=C(O)CNC1CCc2cc(C#Cc3cc(F)cc(F)c3)ccc2C1 (centres unmarked) [Compound 28, 2-((6-((3,5-difluorophenyl)ethynyl)-1,2,3,4-tetrahydronaphthalen-2-yl)amino)acetic acid] | > 1000 nM | < 1000 nM | < 10 nM | > 1000 nM
O=C(O)CNC1CCc2cc(C#Cc3c(Cl)cccc3Cl)ccc2C1 (centres unmarked) [Compound 29, 2-((6-((2,6-dichlorophenyl)ethynyl)-1,2,3,4-tetrahydronaphthalen-2-yl)amino)acetic acid] | > 1000 nM | < 1000 nM | < 10 nM | > 1000 nM
O=C(O)CNC1CCc2cc(C#CC3CCCCC3)ccc2C1 (centres unmarked) [Compound 30, 2-((6-(cyclohexylethynyl)-1,2,3,4-tetrahydronaphthalen-2-yl)amino)acetic acid] | > 1000 nM | < 1000 nM | < 10 nM | > 1000 nM
O=C(O)C1CCN(C2CCc3cc(OCc4c(Cl)cccc4Cl)ccc3C2)CC1 (centres unmarked) [Compound 31, 1-(6-((2,6-dichlorobenzyl)oxy)-1,2,3,4-tetrahydronaphthalen-2-yl)piperidine-4-carboxylic acid] | < 1000 nM | < 1000 nM | < 10 nM | > 1000 nM
O=C(O)C12CC(NC3CCc4cc(OCc5c(Cl)cccc5Cl)ccc4C3)(C1)C2 (centres unmarked) [Compound 32, 3-((6-((2,6-dichlorobenzyl)oxy)-1,2,3,4-tetrahydronaphthalen-2-yl)amino)bicyclo[1.1.1]pentane-1-carboxylic acid] | > 1000 nM | < 1000 nM | < 10 nM | > 1000 nM
CC(NC1CCc2cc(OCc3c(Cl)cccc3Cl)ccc2C1)C(=O)O (centres unmarked) [Compound 33, 2-((6-((2,6-dichlorobenzyl)oxy)-1,2,3,4-tetrahydronaphthalen-2-yl)amino)propanoic acid] | > 1000 nM | < 1000 nM | < 10 nM | > 1000 nM
CCc1cccc(Cl)c1COc1ccc2c(c1)OCC(NCC(=O)O)C2 (centres unmarked) [Compound 34, 2-((7-((2-chloro-6-ethylbenzyl)oxy)chroman-3-yl)amino)acetic acid] | > 1000 nM | < 1000 nM | < 10 nM | > 1000 nM
O=C(O)CNC1COc2cc(OCc3c(Cl)cccc3Cl)ccc2C1 (centres unmarked) [Compound 35, 2-((7-((2,6-dichlorobenzyl)oxy)chroman-3-yl)amino)acetic acid] | > 1000 nM | < 1000 nM | 100 to 1000 nM | > 1000 nM
O=C(O)C1CN(C2COc3cc(C#Cc4cc(F)ccc4F)ccc3C2)C1 (centres unmarked) [Compound 38, 1-(7-((2,5-difluorophenyl)ethynyl)chroman-3-yl)azetidine-3-carboxylic acid] | > 1000 nM | < 1000 nM | < 10 nM | > 1000 nM

Continued, values first:

EC50 (human S1PR1) | EC50 (human S1PR4) | EC50 (human S1PR5) | EC50 (human S1PR3) | SMILES
> 1000 nM | < 1000 nM | 10 to 100 nM | > 1000 nM | O=C(O)C1CN(C2COc3cc(C#Cc4cccc(Cl)c4)ccc3C2)C1 (centres unmarked) [Compound 40, 1-(7-((3-chlorophenyl)ethynyl)chroman-3-yl)azetidine-3-carboxylic acid]
> 1000 nM | > 1000 nM | 10 to 100 nM | > 1000 nM | O=C(O)C1CN(C2COc3cc(C#Cc4ccccc4C(F)(F)F)ccc3C2)C1 (centres unmarked) [Compound 41, 1-(7-((2-(trifluoromethyl)phenyl)ethynyl)chroman-3-yl)azetidine-3-carboxylic acid]
> 1000 nM | > 1000 nM | 10 to 100 nM | > 1000 nM | O=C(O)C1CN(C2COc3cc(C#Cc4ccccc4OC(F)F)ccc3C2)C1 (centres unmarked) [Compound 42, 1-(7-((2-(difluoromethoxy)phenyl)ethynyl)chroman-3-yl)azetidine-3-carboxylic acid]
> 1000 nM | > 1000 nM | 10 to 100 nM | > 1000 nM | O=C(O)C1CN(C2COc3cc(C#Cc4c(Cl)cccc4Cl)ccc3C2)C1 (centres unmarked) [Compound 44, 1-(7-((2,6-dichlorophenyl)ethynyl)chroman-3-yl)azetidine-3-carboxylic acid]
> 1000 nM | < 1000 nM | 10 to 100 nM | > 1000 nM | O=C(O)C1CN(C2COc3cc(C#Cc4c(F)cccc4F)ccc3C2)C1 (centres unmarked) [Compound 47, 1-(7-((2,6-difluorophenyl)ethynyl)chroman-3-yl)azetidine-3-carboxylic acid]
> 1000 nM | > 1000 nM | 10 to 100 nM | > 1000 nM | O=C(O)C12CC(NC3COc4cc(OCc5c(Cl)cccc5Cl)ccc4C3)(C1)C2 (centres unmarked) [Compound 48, 3-((7-((2,6-dichlorobenzyl)oxy)chroman-3-yl)amino)-bicyclo[1.1.1]pentane-1-carboxylic acid]
> 1000 nM | > 1000 nM | < 10 nM | > 1000 nM | O=C(O)C1CN(C2COc3cc(-c4ccc(OCc5ccc(Cl)cc5)cc4)ccc3C2)C1 (centres unmarked) [Compound 54, 1-(7-(4-((4-chlorobenzyl)oxy)phenyl)chroman-3-yl)azetidine-3-carboxylic acid]
< 1000 nM | > 1000 nM | < 10 nM | > 1000 nM | O=C(O)C1CN(C2COc3cc(-c4ccc(OCC5CCCCC5)cc4)ccc3C2)C1 (centres unmarked) [Compound 55, 1-(7-(4-(cyclohexylmethoxy)phenyl)chroman-3-yl)azetidine-3-carboxylic acid]
< 1000 nM | > 1000 nM | 10 to 100 nM | > 1000 nM | O=C(O)C1CN(C2COc3cc(-c4ccc(OCc5cccc(F)c5F)cc4)ccc3C2)C1 (centres unmarked) [Compound 56, 1-(7-(4-((2,3-difluorobenzyl)oxy)phenyl)chroman-3-yl)azetidine-3-carboxylic acid]
> 1000 nM | < 1000 nM | 10 to 100 nM | > 1000 nM | CCc1ccccc1COc1ccc2c(c1)OCC(N1CC(C(=O)O)C1)C2 (centres unmarked) [Compound 64, 1-(7-((2-ethylbenzyl)oxy)chroman-3-yl)azetidine-3-carboxylic acid]
> 1000 nM | < 1000 nM | < 10 nM | > 1000 nM | CCc1cccc(F)c1COc1ccc2c(c1)OCC(N1CC(C(=O)O)C1)C2 (centres unmarked) [Compound 65, 1-(7-((2-ethyl-6-fluorobenzyl)oxy)chroman-3-yl)azetidine-3-carboxylic acid]
> 1000 nM | < 1000 nM | 10 to 100 nM | > 1000 nM | O=C(O)C1CN(C2COc3cc(OCc4c(F)cccc4C(F)(F)F)ccc3C2)C1 (centres unmarked) [Compound 66, 1-(7-((2-fluoro-6-(trifluoromethyl)benzyl)oxy)chroman-3-yl)azetidine-3-carboxylic acid]
> 1000 nM | < 1000 nM | < 10 nM | > 1000 nM | O=C(O)C1CN(C2COc3cc(OCc4c(F)cccc4C4CC4)ccc3C2)C1 (centres unmarked) [Compound 67, 1-(7-((2-cyclopropyl-6-fluorobenzyl)oxy)chroman-3-yl)azetidine-3-carboxylic acid]
> 1000 nM | > 1000 nM | 100 to 1000 nM | > 1000 nM | O=C(O)C1CN(C2COc3cc(OCc4ccc(Cl)cc4Cl)ccc3C2)C1 (centres unmarked) [Compound 68, 1-(7-((2,4-dichlorobenzyl)oxy)chroman-3-yl)azetidine-3-carboxylic acid]
> 1000 nM | > 1000 nM | 10 to 100 nM | > 1000 nM | O=C(O)C1CN(C2COc3cc(OCCc4c(Cl)cccc4Cl)ccc3C2)C1 (centres unmarked) [Compound 69, 1-(7-(2,6-dichlorophenethoxy)chroman-3-yl)azetidine-3-carboxylic acid]
